The source of these data is EP0431972A2, “Macrocyclic lactones having renin inhibiting properties” (MERCK & CO. INC., priority 1989, dated 1991).

Test [1] concerns conscious sodium-deficient Rhesus monkeys. As to the kind of experiment: intravenous evaluation of renin inhibitors in conscious sodium-deficient Rhesus monkeys (blood pressure lowering). It counts as in vivo. Particulars: i.v. bolus injection. The source says: The following methods were used for in vivo evaluation of the renin inhibitors of Formua I : Intravenous evaluation of renin inhibitors in conscious sodium-deficient Rhesus monkeys : Rhesus monkeys, male and female, weighing 2.6-4.5 Kg, were surgically prepared with chronic arterial and venous catheters and vascular access ports for direct monitoring of mean arterial pressure (MAPI) and heart rate (HR). The animals were maintained on a low sodium diet (1.2 mmol Nalday) plus fruit for a week, and administered LASIX (furosemide) at 2.5 mg/Kg, intramuscularly the evening prior to the experiment The animals had been trained to sit quietly in the chairs with waterAD LIBIUM for the duration of the experiment. The inhibitors were administered by bolus injection using 0.5% acetic acid-5% dextrose in water as the vehicle (0.4 ml/Kg), and MAP and HRwere measured. Blood samples were withdrawn at different time intervals beginning at the nadir of hypotensive response. PRA was determined as described above. […] A projected ED50 dose for each inhibitorwas calculated using the following formula: ED50 (Test Inhibitor, umoles/Kg) = ED50 (SCRIP) X [IC50 (Test Inhibitor)/IC50 (SCRIP)], where the IC50 values were determined against human plasma renin. […] Percent inhibition of monkey PRA, changes in MAP and HR were calculated and plotted against time. […]

In another test the test system is human plasma renin. The test is described as follows: human plasma renin IC50 determination. It counts as biochemical. Particulars: against human plasma renin, pH 7.4. The protocol:
The following method was used for in vitro evaluation of the renin inhibitors of Formuta t: • The human plasma renin IC50 values for inhibitors of Formula I were determined at pH 7.4 following the procedure described in J. Boger, L.S. Payne, D.S. Perlow, N.S. Lohr, M. Poe, E.H. Blaine, E.H. Elm, T.W. Schorn, B.I. Lamont, T.-Y. Lin, M. Kawai, D.H. Rich and D.F. Veber, J. Med. Chem., 28, 1779 (1985).

Square brackets hold non-standard residues; d marks the D form. Peptide text beside a SMILES is read from it. * marks the point of attachment. Sta = CC(C)C[C@H](N)[C@@H](O)CC(=O)O; Isovaleryl = CC(C)CC(=O)*

Take `CC(C)CC(=O)N[C@@H](Cc1c[nH]cn1)C(=O)N1CCC[C@H]1C(=O)N[C@@H](Cc1ccccc1)C(=O)N[C@@H](Cc1c[nH]cn1)C(=O)N[C@@H](CC(C)C)[C@@H](O)CC(=O)N[C@@H](CC(C)C)C(=O)N[C@@H](Cc1ccccc1)C(N)=O` [SCRIP, Iva-His-Pro-Phe-His-Sta-Leu-Phe-NH2] (Isovaleryl-HPFH[Sta]LF-NH2): the “i.v. dose of the standard inhibitor required to lower blood pressure by 50% of the maximal response (ED50)” value in test [1] was found to be 0.039 µmol/kg. The compound also showed an IC50 in the test with human plasma renin of 3.7 nM.
